The text below walks through data of patent US20200270294A1, “IMMUNOSTIMULATORY ADJUVANTS AND USES THEREOF” (TURUN YLIOPISTO, priority 2015, published 2020).

Each structure is given as a SMILES string.

Test [1] concerns birch-induced production of IL-4 in PBMC. As to the kind of experiment: Birch allergen (Bet v) induced IL-4 production in PBMC cultures of birch allergic subjects. It is filed as cell-based, human. The conditions noted are these: for in vitro activity (PBMC model): screen of oligovalent β-(1→2) mannosides; for suppression of birch-induced production of IL-4: Bet v 50 μg/ml, 72 h. The text has this:
(§1) During pollen season, 14 adult birch allergic subjects with allergic rhinoconjunctivitis (12 females and two males) were enrolled in the study (mean age 42.5 years, SD 12.4 years; mean birch-specific IgE (Immunocap, Thermo Fisher Scientific Phadia, Uppsala, Sweden) 36.1 kU/1, SD 31.5 kU/1). They were selected for the study from an earlier cohort based on good birch induced IL-4 responses during pollen season. All samples were taken after informed consent. The study was approved by the local ethics committee.
Peripheral blood mononuclear cells (PBMC) were isolated by Ficoll-Paque density gradient centrifugation (Ficoll-Paque PLUS, GE Healthcare BioSciences AB, Uppsala, Sweden) from heparinized blood samples from study subjects during pollen season. The PBMC were washed twice with Hanks' balanced salt solution (HBSS) buffered with NaHCO3 (pH 7.4) and resuspended in RPMI-1640 culture medium (Invitrogen Co., Carlsbad, Calif., USA) supplemented with 5% autologous serum, 2.5 mM L-glutamine (Sigma-Aldrich Co., St. Louis, Mo.) and 100 μg/ml gentamycin sulfate (Biological Industries Ltd., Kibbutz Beit Haemek, Israel) and applied on 48-well flat-bottomed cell culture plates (Costar, Corning Inc., New York, United States) at a density of […]. Cells were co-cultured in the presence of birch allergen (50 μg/ml, Betula verrucosa, Bet v, Aquagen, ALK-Abellò A/S, Horsholm, Denmark) and compounds 1, 2, 3 and MPL with concentrations 1, 10 and 100 μg/ml and adjuvant CpG-ODN with concentrations 2, 20 and 200 μg/ml to achieve equal molarities. Medium alone served as an unstimulated control. All incubations were performed at +37° C. in humidified atmosphere with 5% CO2. Supernatants from cultures performed in duplicate were collected 72 h after beginning of the stimulation and stored at −70° C.
The cytokines IL-4 and TNF in supernatants were measured with highsensitivity human cytokine Lincoplex kits (LINCO Research, St. Charles, Mo., USA). The assays were performed in accordance with the manufacturer's protocol by employing Luminex technology.
(§2) Wilcoxon's Signed Rank test was used to test statistical significance in PBMC experiments. Single mice groups were compared by the nonparametric Mann-Whitney U-test using GraphPad Prism software (v.5, GraphPad Software Inc., La Jolla, Calif., USA). Data are expressed as mean±SEM and P-values of <0.05 are considered statistically significant.

For test [2], the system named is production of pro-inflammatory cytokine TNF in PBMC. The test can be described thus: TNF production in PBMC cultures stimulated with Bet v. The test is classed as cell-based, human. Conditions: 100 μg/ml (also printed 100 l/ml), Bet v 50 μg/ml, 72 h.
Source text: as §1
Peripheral blood mononuclear cells (PBMC) were isolated by Ficoll-Paque density gradient centrifugation (Ficoll-Paque PLUS, GE Healthcare BioSciences AB, Uppsala, Sweden) from heparinized blood samples from study subjects during pollen season. […]
The cytokines IL-4 and TNF in supernatants were measured with highsensitivity human cytokine Lincoplex kits (LINCO Research, St. Charles, Mo., USA). […]
Wilcoxon's Signed Rank test was used to test statistical significance in PBMC experiments. […] Data are expressed as mean±SEM and P-values of <0.05 are considered statistically significant.

For a further test, the system named is B16 melanoma cells. The test can be described thus: In vivo model of cancer immunotherapy: B16 melanoma tumor growth in mice. Details: species or system C57BL/6 mice. As to the method:
as §2
3*10^6 B16 melanoma cells in 100 μl PBS were injected s.c. into the right flank of seven-week-old female C57BL/6 mice. Compound 3 was given i.p. 50 μg/injection in 200 μl PBS five times at 3-day intervals, starting on day 0. Each treatment group contained 10 mice. Tumor volumes were calculated using the formula 0.5*length*width^2. Animals were sacrificed when tumor volumes reached 800 mm^3. Animal experimentations were made following the procedures accepted by Eteli-Suomen Aluehallintavirasto (permission ESAVI/480/Apr. 10.2007/2016).

[3] abbreviates: 10 μg/ml adjuvant, PBMC of 14 birch allergic patients.
Setting [4] is: 100 g/ml or 100 l/ml as printed (highest concentration, b131: 100 μg/ml), PBMC.

On to `CC(=O)OCC1O[C@H](OCCn2cc(COCC(COCc3cn(CCO[C@H]4OC(COC(C)=O)[C@@H](OC(C)=O)[C@H](OC(C)=O)C4O[C@@H]4OC(COC(C)=O)[C@@H](OC(C)=O)[C@H](OC(C)=O)C4OC(C)=O)nn3)OCc3cn(CCO[C@H]4OC(COC(C)=O)[C@@H](OC(C)=O)[C@H](OC(C)=O)C4O[C@@H]4OC(COC(C)=O)[C@@H](OC(C)=O)[C@H](OC(C)=O)C4OC(C)=O)nn3)nn2)C(O[C@@H]2OC(COC(C)=O)[C@@H](OC(C)=O)[C@H](OC(C)=O)C2OC(C)=O)[C@@H](OC(C)=O)[C@@H]1OC(C)=O` (stereo partly drawn) [compound 1, 1,2,3-tris[1-(3-{0-(2,3,4,6-tetra-O-acetyl-β-D-mannopyranosyl)-(1→2)-3,4,6-tri-O-acetyl-α-D-mannopyranosyloxy}ethyl)-4-methyloxy-1,2,3-triazolyl]propane], for which the “in vitro activity (PBMC model)” value in test [1] is recorded as “promising in vitro activities”.

As for `CC(=O)OC[C@H]1O[C@@H](O[C@@H]2[C@@H](OCCCn3cc(COCC(COCc4cn(CCCO[C@H]5O[C@H](COC(C)=O)[C@@H](OC(C)=O)[C@H](OC(C)=O)[C@@H]5O[C@@H]5O[C@H](COC(C)=O)[C@@H](OC(C)=O)[C@H](OC(C)=O)[C@@H]5OC(C)=O)nn4)OCc4cn(CCCO[C@H]5O[C@H](COC(C)=O)[C@@H](OC(C)=O)[C@H](OC(C)=O)[C@@H]5O[C@@H]5O[C@H](COC(C)=O)[C@@H](OC(C)=O)[C@H](OC(C)=O)[C@@H]5OC(C)=O)nn4)nn3)O[C@H](COC(C)=O)[C@@H](OC(C)=O)[C@@H]2OC(C)=O)[C@@H](OC(C)=O)[C@@H](OC(C)=O)[C@@H]1OC(C)=O` (stereo partly drawn) [compound 2, 1,2,3-tris[1-(3-{O-(2,3,4,6-tetra-O-acetyl-β-D-mannopyranosyl)-(1-+2)-3,4,6-tri-O-acetyl-α-D-mannopyranosyloxy}propyl)-4-methyloxy-1,2,3-triazolyl]propane], the “suppression of birch-induced production of IL-4” value in test [1] (setting [3]) and in test [1] (setting [4]) was “significant suppression” in each case. In addition, the “in vitro activity (PBMC model)” value in test [1] was “promising in vitro activities”. Further, the “production of pro-inflammatory cytokine TNF” value in test [2] is on record as “Significantly increased production”.

As to `CC(=O)OCC1O[C@@H](OC2C(OC(C)=O)[C@H](OC(C)=O)C(COC(C)=O)O[C@@H]2OCCOCCOCCn2cc(COCC(COCc3cn(CCOCCOCCO[C@H]4OC(COC(C)=O)[C@@H](OC(C)=O)C(OC(C)=O)C4O[C@@H]4OC(COC(C)=O)[C@@H](OC(C)=O)C(OC(C)=O)C4OC(C)=O)nn3)OCc3cn(CCOCCOCCO[C@H]4OC(COC(C)=O)[C@@H](OC(C)=O)C(OC(C)=O)C4O[C@@H]4OC(COC(C)=O)[C@@H](OC(C)=O)C(OC(C)=O)C4OC(C)=O)nn3)nn2)C(OC(C)=O)C(OC(C)=O)[C@@H]1OC(C)=O` (stereo partly drawn) [compound 3, 1,2,3-tris(1-{2-[2-(2-[O-(2,3,4,6-tetra-O-acetyl-β-D-mannopyranosyl)-(1→2)-3,4,6-tri-O-acetyl-α-D-mannopyranosyloxy]ethoxy)-ethoxy]ethyl}-4-methyloxy-1,2,3-triazolyl)propane], the “suppression of birch-induced production of IL-4” value in test [1] (setting [3]) and in test [1] (setting [4]) was “significant suppression” in each case. Besides, the “in vitro activity (PBMC model)” value in test [1] is reported as “promising in vitro activities”. Moreover, the “production of pro-inflammatory cytokine TNF” value in test [2] is “Significantly increased production”. Further, the “tumor volume as compared to control mice” value with B16 melanoma cells (Day 9, i.p. 50 μg/injection five times at 3-day intervals) is recorded as “statistically significantly smaller”. In addition, the “start of tumor growth as compared to control” value in the test with B16 melanoma cells (i.p. 50 μg/injection five times at 3-day intervals, starting on day 0) is “started later”. Also, in the test with B16 melanoma cells (i.p. 50 μg/injection five times at 3-day intervals, until Day 9), the “tumor growth until Day 9 as compared to control” value was “slower”.
